25 compounds from ChEMBL document CHEMBL3098116, “Synthesis and biological evaluation of the pirfenidone derivatives as antifibrotic agents” (Bioorg Med Chem Lett, 2014) can be followed below.

The target of assay [1] is T1, Mitogen-activated protein kinase 14 (Homo sapiens, UniProt Q16539). As to the kind of experiment: Inhibition of p38alpha (unknown origin) up to 60 mins by ADP-Glo assay. A general note: In ADP-Glo the light output rises with the ADP produced.
The next assay deals with MRC5. As to the kind of experiment: Antifibrotic activity in human MRC5 cells assessed as inhibition of cell growth after 24 hrs by MTT assay. In kind it is functional, cell-based. Conditions: MRC5, 24 h. In general terms: Formazan colour is commonly taken as a measure of viable cells.
The target in assay [2] is T1, Mitogen-activated protein kinase 14. The experiment in a line: Ratio of pirfenidone IC50 for compound IC50 for p38alpha (unknown origin) up to 60 mins by ADP-Glo assay.

T1 sequence (Q16539 whole entry): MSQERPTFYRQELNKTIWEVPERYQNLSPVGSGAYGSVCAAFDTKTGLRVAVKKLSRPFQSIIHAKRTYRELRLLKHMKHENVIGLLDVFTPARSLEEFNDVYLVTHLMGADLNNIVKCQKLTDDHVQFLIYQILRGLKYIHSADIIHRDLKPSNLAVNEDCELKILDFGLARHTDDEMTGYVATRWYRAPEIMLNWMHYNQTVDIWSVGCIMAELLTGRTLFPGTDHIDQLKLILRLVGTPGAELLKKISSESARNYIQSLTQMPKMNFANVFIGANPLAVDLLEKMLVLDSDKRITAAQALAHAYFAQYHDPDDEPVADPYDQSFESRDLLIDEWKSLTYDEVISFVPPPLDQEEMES

A word on the IC50: it is the concentration that gives 50% inhibition. On to `Cc1ccc(=O)n(-c2ccc(OCCCN(C)C)cc2)c1`, for which the IC50 in assay [1] amounted to 14.2 µM; with MRC5, 5220 µM.
Take `Cc1ccc(=O)n(-c2ccc(OCCCN3CCCC3)cc2)c1`: the IC50 in the assay with MRC5 turned out to be 3000 µM.
With `Cc1ccc(=O)n(-c2ccc(OCCCCN3CCOCC3)cc2)c1`, the IC50 in the assay with MRC5 was determined as 3030 µM.
`Cc1ccc(=O)n(-c2ccc(OCCCCN(C)C)cc2)c1`: the IC50 with MRC5 came out at 1800 µM.
Regarding `Cc1ccc(=O)n(-c2ccc(OCCCCCN3CCOCC3)cc2)c1`, the half-inhibitory concentration (IC50) in the assay on MRC5 came out at 2590 µM.
For the compound `Cc1ccc(=O)n(-c2ccccc2)c1` [PIRFENIDONE], the values for the half-maximal inhibitory concentration (IC50) (in assay [1]; in the assay with MRC5) were 165 µM and 14400 µM, respectively.
As to `CCN(CC)CCOc1ccc(-n2cc(C)ccc2=O)cc1`, in the assay with MRC5, the IC50 was 6200 µM.
Same read-out and setting: the figure for `Cc1ccc(=O)n(-c2ccc(OCCCN3CCOCC3)cc2)c1` is 5280 µM; for `CCN(CC)CCCCCOc1ccc(-n2cc(C)ccc2=O)cc1` it is 4350 µM.
On the same count and under the same terms, to `CCN(CC)CCCOc1ccc(-n2cc(C)ccc2=O)cc1` belongs 2100 µM.
Turning to `Cc1ccc(=O)n(-c2ccc(OCCCCCN3CCCCC3)cc2)c1`, the half-maximal inhibitory concentration (IC50) in assay [1] came out at 16.2 µM; in the assay on MRC5, 3670 µM.
Take `Cc1ccc(=O)n(-c2ccc(OCCCN3CCN(C)CC3)cc2)c1`: the IC50 with MRC5 was 4360 µM.
Turning to `Cc1ccc(=O)n(-c2ccc(OCCCCN3CCCCC3)cc2)c1`, the IC50 was determined as 5.21 µM in assay [1] and 3290 µM in the assay on MRC5.
In the case of `CCN(CC)CCCCOc1ccc(-n2cc(C)ccc2=O)cc1`, the IC50 in the assay with MRC5 was determined as 2160 µM.
Still for that read-out and setting: the figure for `Cc1ccc(=O)n(-c2ccc(OCCCCCN(C)C)cc2)c1` is 2980 µM; for `Cc1ccc(=O)n(-c2ccc(OCCN3CCN(C)CC3)cc2)c1` it is 1360 µM; for `Cc1ccc(=O)n(-c2ccc(OCCCCN3CCCC3)cc2)c1` it is 1770 µM.
For the compound `Cc1ccc(=O)n(-c2ccc(OCCN3CCCCC3)cc2)c1`, the results for the half-inhibitory concentration (IC50) (in assay [1]; in the assay with MRC5) were 54.3 µM and 2480 µM, respectively.
Consider `Cc1ccc(=O)n(-c2ccc(OCCN3CCOCC3)cc2)c1`, for which the IC50 in the assay with MRC5 was 7640 µM.
`Cc1ccc(=O)n(-c2ccc(OCCCCCN3CCCC3)cc2)c1`: the half-inhibitory concentration (IC50) with MRC5 turned out to be 1470 µM.
For `Cc1ccc(=O)n(-c2ccc(OCCN(C)C)cc2)c1`, the IC50 with MRC5 was 6880 µM.
Regarding `Cc1ccc(=O)n(-c2ccc(OCCCCCN3CCN(C)CC3)cc2)c1`, in the assay with MRC5, the IC50 came to 3410 µM.
On to `Cc1ccc(=O)n(-c2ccc(OCCCN3CCCCC3)cc2)c1`, for which the Ratio IC50 in assay [2] turned out to be 40. The figures for the IC50 (in assay [1]; in the assay with MRC5) were 4.07 µM and 2550 µM, respectively.
As to `Cc1ccc(=O)n(-c2ccc(OCCN3CCCC3)cc2)c1`, the IC50 in the assay on MRC5 came to 3780 µM.
For the compound `Cc1ccc(=O)n(-c2ccc(OCCCCN3CCN(C)CC3)cc2)c1`, the IC50 with MRC5 came to 2330 µM.
